{"source": "patent US9072698B2", "about": "“Method for screening anti-cancer compounds inhibiting function of TM4SF5 and anti-cancer composition containing chalcone compounds” (Seoul National University Industry Foundation, priority 2006, dated 2015)", "key": {"[1]": {"test_system": "HCT15 (colon adenocarcinoma)", "test": "In vitro cytotoxicity, sulforhodamine B (SRB) method, HCT15", "format": "cell-based", "details": "Homo sapiens; HCT-15, SRB method; read-out: cytotoxicity (ED50) HCT-15", "in_short": "(§1)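 Cells grown in RPMI 1640 with 10% FCS at 37 °C, 5% CO2 were exposed to compounds at 30, 10, 3, 1 and 0.3 μg/ml final, with DMSO below 0.5%. Cytotoxicity was read by the standard NCI sulforhodamine B protein-staining method.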"}, "[2]": {"test_system": "A-549 (lung carcinoma)", "test": "In vitro cytotoxicity, sulforhodamine B (SRB) method, A-549", "format": "cell-based", "details": "Homo sapiens, A549; A-549, SRB method; read-out: cytotoxicity (ED50) A-549", "in_short": "as §1"}, "[3]": {"test_system": "SNU449Tp cells", "test": "Cell growth over time of TM4SF5-expressing cells (FIG. 43, right)", "format": "cell-based, human", "details": "TSAHC at given concentrations", "procedure": "(§2) Arrows indicate the overlapping nuclei of cells undergoing cell division. […] In addition, in order to measure the growth rates of the cells, 5×10^4 cells were plated onto 6-well plates and counted every 12 hrs. The results are expressed as a graph. […] This was observed even at a low cell density. That is, among cells at a low density, TM4SF5-expressing cells proliferated through cell division, during which two nuclei overlapped each other."}, "[4]": {"test_system": "SNU449 Cp cells", "test": "Cell growth over time of TM4SF5-null cells (FIG. 43, left)", "format": "cell-based, human", "details": "TSAHC at given concentrations", "procedure": "as §2"}, "[5]": {"test_system": "SNU449Tp cells", "test": "BrdU immunofluorescent staining, S-phase progression (FIG. 44)", "format": "cell-based, human", "details": "20 μM, BrdU for 24 hrs", "procedure": "When cells were transfected with given specific genes or infected with various viruses, they were used after being cultured for a given period of time. Cells treated with 10 mM lysophosphatidic acid (LPA) were used 1 hour after being attached to cover glasses. Immunofluorescent staining was carried out by preparing a slide for fluorescent analysis through incubation with a primary antibody against a target protein, washing out unbound antibody molecules, incubation with a fluorescein-conjugated secondary antibody and washing out unbound antibody molecules, and actin filament staininh was carried out with rhodamine-conjugated phalloidin. Antibodies used included antibodies against E-cadherin, β-catenin, FLAG, 4′-6-diamidino-2-phenylindole (DAPI), 5-brorno-2′-deoxy-uridine (BrdU), p27^kip1, ZO1 (zonula occludens-1), and the like. Immunofluorescent stained cover glasses were placed on slides and observed under a fluorescence microscope or a confocal laser scanning microscope."}, "[6]": {"test_system": "p27^kip1, pS^10p27^kip1, pY^577FAK and α-SMA", "test": "Western blotting for TM4SF5-mediated protein expression (FIG. 46)", "format": "cell-based, human", "procedure": "Cell lysates, obtained under various experimental conditions, were prepared using RIPA buffer after cells under various conditions were washed with PBS. In special cases, employed cells were transfected with given expression vectors or infected with an adenovirus expressing an shRNA to TM4SF5 or a siRNA to p27^kip1. In addition, cells treated with 10 μM of cycloheximide for a given period of time were used. For such cell lysates, protein was quantified, and the same amounts of protein were used. Western blotting was performed using antibodies to phospho-Y^577FAK, phospho-Y^416Src, c-Src, RhoA, p120^ctn, β-catenin, pS^10p27^kip1, FAK, E-cadherin, ZO1, Rac1, p190RhoGAP, p27^kip1, GRAF, hKIS, desmoplakin, α-tubulin, α-catenin, and α-smooth muscle actin (α-SMA)."}, "[7]": {"test_system": "RhoA", "test": "In vitro RhoA activity assay (FIG. 48)", "format": "cell-based, human", "details": "TM4SF5-expressing cells", "procedure": "In order to investigate signaling pathways involved in the aforementioned morphological change, TM4SF5-expressing cell lines (SNU449Tp, T3, T7 and T16), established in Example 1, were assessed for expression levels of FAK phosphorylated at Tyr577 (pY^577FAK) and c-Src phosphorylated at Tyr 416 (pY^416cSrc), Rac1 activity and RhoA activity. Whole cell lysates were prepared and subjected to Western blot analysis, which was performed with each antibody against proteins indicated in FIGS. 3 and 5. The activity of RhoA and Rac1 was monitored by pull-down of RhoA and Rac1 from the cell lysates in vitro."}, "[8]": {"test_system": "SNU449Tp cells", "test": "Transwell chamber cell migration (FIG. 65)", "format": "cell-based, human", "details": "20 μM, 18 hrs", "procedure": "Cell migration was examined using Boyden Transwell chamber 24 well plates (Costar, Cambridge, Mass.). SNU449 Cp and SNU449Tp cells were placed in a chamber on a polycarbonate filter (8 μm porosity) at a density of 5×10^4 cells/well, and cultured in serum-free RPMI (Roswell Park Memorial Institute) media in an incubator at 37° C. under 5% CO2 for 24 hrs. Then, cells on the upper surface of the membrane of the insert chamber were completely removed by wiping with a cotton swab. Cells on the lower side of the membrane were fixed with 70% methanol for about 7 min.\nSNU449 Cp cells and SNU449Tp cells were plated onto 6-well plates and cultured for 24 hrs. Cells were then treated with 20 μM of TSAHC to culture for 18 hrs. Cells were transferred into insert wells of the Transwell chamber. After 18 hrs, migrated cells were fixed, stained, and observed under an optical microscope. Cells were counted, and the results were expressed as a graph (FIG. 65)."}, "[9]": {"test_system": "SNU449Tp cells", "test": "Comparison of TSAHC and analogues: cell morphology and multilayer growth by optical microscope (FIG. 69)", "format": "cell-based, human", "details": "20 μM, 24 hr treatment", "procedure": "TSAHC and its structural analogues were compared for their effects on TM4SF5-mediated events. Dimethyl sulfoxide (DMSO) and chalcone analogues, used in this test, have the following chemical structure.\nSNU449 Cp cells and SNU449Tp cells were plated onto 6-well plates and treated with the above compounds at 20 μM for 24 hrs. Cells were monitored for changes in cell morphology using an optical microscope."}}}
{"compound": "Cc1ccc(S(=O)(=O)Nc2ccc(C(=O)/C=C/c3ccc(O)cc3)cc2)cc1", "note": "[Compound 1, 4′-(p-toluenesulfonylamino)-4-hydroxychalcone]", "values": [{"measurement": "IC50", "setting": "[1]", "value": 35, "unit": "µg/mL"}, {"measurement": "IC50", "setting": "[2]", "value": 38, "unit": "µg/mL"}, {"measurement": "growth over time of TM4SF5-expressing cells", "setting": "[3]", "value": "reduced linear growth over time in a manner dependent on TSAHC concentrations"}, {"measurement": "effect on TM4SF5-null cells", "setting": "[4]", "value": "did not affect TM4SF5-null cells"}, {"measurement": "S-phase progression", "setting": "[5]", "value": "inhibited S-phase progression"}, {"measurement": "expression levels of p27^kip1, pS^10p27^kip1, pY^577FAK and α-SMA", "setting": "[6]", "value": "effectively reduce TM4SF5-mediated high expression levels of p27^kip1, pS^10p27^kip1, pY^577FAK and α-SMA"}, {"measurement": "RhoA activity", "setting": "[7]", "value": "restored the reduced RhoA activity in TM4SF5-expressing cells"}, {"measurement": "TM4SF5-mediated cell migration", "setting": "[8]", "value": "inhibit TM4SF5-mediated cell migration"}, {"measurement": "TM4SF5-mediated multilayer growth", "setting": "[9]", "value": "effectively stimulate the growth of TM4SF5-expressing cells, not in a multilayer but in a monolayer arrangement"}, {"measurement": "cell morphology", "setting": "[9]", "value": "changed the cell morphology into the same shape as that of SNU449 control cells not expressing TM4SF5"}]}
